According to ChEMBL document CHEMBL1201862, “PubChem BioAssay data set” (2004):
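Dose response: 5 concentrations. Exposure: 48 h. Format: 96-well plates. Endpoint: linear interpolation; highest concentration if not reached. GI50: concentration for 50% inhibition of growth.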 Calls of active or inactive are those of the source. No stated cut-off is given here; in the data, active = GI50 up to about 1.1 µM and inactive = higher.

Assays:
Assay in all cases: growth of human tumour cells (NCI), 48 h
[1] = tested on: 786-0
[2] = tested on: A549
[3] = tested on: ACHN
[4] = tested on: CAKI-1
[5] = tested on: CCRF-CEM
[6] = tested on: COLO 205
[7] = tested on: DLD-1
[8] = tested on: DMS-114
[9] = tested on: DMS-273
[10] = tested on: EKVX
[11] = tested on: HCC 2998
[12] = tested on: HCT-116
[13] = tested on: HCT-15
[14] = tested on: HL-60
[15] = tested on: HOP-18
[16] = tested on: HOP-62
[17] = tested on: HOP-92
[18] = tested on: HT-29
[19] = tested on: IGROV-1
[20] = tested on: K562
[21] = tested on: KM-20L2
[22] = tested on: KM12
[23] = tested on: LOX IMVI
[24] = tested on: LXFL 529
[25] = tested on: M14
[26] = tested on: M19-MEL
[27] = tested on: MOLT-4
[28] = tested on: Malme-3M
[29] = tested on: NCI-H226
[30] = tested on: NCI-H23
[31] = tested on: NCI-H460
[32] = tested on: NCI-H522
[33] = tested on: OVCAR-3
[34] = tested on: OVCAR-4
[35] = tested on: OVCAR-5
[36] = tested on: OVCAR-8
[37] = tested on: RPMI-8226
[38] = tested on: RXF 393
[39] = tested on: SF-268
[40] = tested on: SF-295
[41] = tested on: SF-539
[42] = tested on: SK-MEL-28
[43] = tested on: SK-MEL-5
[44] = tested on: SK-OV-3
[45] = tested on: SN12C
[46] = tested on: SNB-19
[47] = tested on: SNB-75
[48] = tested on: SNB-78
[49] = tested on: SR
[50] = tested on: SW-620
[51] = tested on: TK-10
[52] = tested on: U-251
[53] = tested on: UACC-257
[54] = tested on: UACC-62
[55] = tested on: UO-31
[56] = tested on: XF498
[57] = tested on: A498
[58] = tested on: RXF 631
[59] = tested on: SK-MEL-2

For `C=CCC1C(=O)CC2(C)CC(=O)C(CC=C)C12C` (stereo unspecified), the GI50 [1] was > 100 µM (inactive), the GI50 [2] was > 100 µM (inactive) and the GI50 [3] was > 100 µM (inactive). For the same compound, the GI50 [4] was > 100 µM (inactive), the GI50 [5] was > 100 µM (inactive) and the GI50 [6] was > 100 µM (inactive). For the same compound, the GI50 [7] was > 100 µM (inactive), the GI50 [8] was > 100 µM (inactive) and the GI50 [9] was > 100 µM (inactive). For the same compound, the GI50 [10] was > 100 µM (inactive), the GI50 [11] was > 100 µM (inactive) and the GI50 [12] was > 100 µM (inactive). For the same compound, the GI50 [13] was greater than 100 µM, the GI50 [14] was > 100 µM (inactive) and the GI50 [15] was > 100 µM (inactive). The GI50 [16] was > 100 µM (inactive), the GI50 [17] was > 100 µM (inactive) and the GI50 [18] was > 100 µM (inactive). The GI50 [19] was > 100 µM (inactive), the GI50 [20] was > 100 µM (inactive) and the GI50 [21] was > 100 µM (inactive). For the same compound, the GI50 [22] was > 100 µM (inactive), the GI50 [23] was > 100 µM (inactive) and the GI50 [24] was > 100 µM (inactive). For the same compound, the GI50 [25] was > 100 µM (inactive), the GI50 [26] was > 100 µM (inactive) and the GI50 [27] was > 100 µM (inactive). For the same compound, the GI50 [28] was > 100 µM (inactive), the GI50 [29] was > 100 µM (inactive) and the GI50 [30] was > 100 µM (inactive). The GI50 [31] was > 100 µM (inactive), the GI50 [32] was > 100 µM (inactive) and the GI50 [33] was > 100 µM (inactive). The GI50 [34] was 91 µM (inactive), the GI50 [35] was > 100 µM (inactive) and the GI50 [36] was > 100 µM (inactive). The GI50 [37] was > 100 µM (inactive), the GI50 [38] was > 100 µM (inactive) and the GI50 [39] was > 100 µM (inactive). The GI50 [40] was > 100 µM (inactive), the GI50 [41] was > 100 µM (inactive) and the GI50 [42] was > 100 µM (inactive). The GI50 [43] was > 100 µM (inactive), the GI50 [44] was > 100 µM (inactive) and the GI50 [45] was > 100 µM (inactive). The GI50 [46] was > 100 µM (inactive), the GI50 [47] was 76.9 µM (inactive) and the GI50 [48] was > 100 µM (inactive). For the same compound, the GI50 [49] was > 100 µM (inactive), the GI50 [50] was > 100 µM (inactive) and the GI50 [51] was > 100 µM (inactive). The GI50 [52] was > 100 µM (inactive), the GI50 [53] was > 100 µM (inactive) and the GI50 [54] was > 100 µM (inactive). The GI50 [55] was > 100 µM (inactive) and the GI50 [56] was > 100 µM (inactive).
For `O=C(CC(=O)C(=O)Nc1ccccc1)CC(c1ccccc1)c1c(O)c2ccccc2oc1=O` (stereo unspecified), the GI50 [1] was > 100 µM (inactive), the GI50 [57] was > 100 µM (inactive) and the GI50 [2] was > 100 µM (inactive). For the same compound, the GI50 [3] was > 100 µM (inactive), the GI50 [4] was > 100 µM (inactive) and the GI50 [5] was > 100 µM (inactive). For the same compound, the GI50 [6] was > 100 µM (inactive), the GI50 [7] was > 100 µM (inactive) and the GI50 [8] was > 100 µM (inactive). For the same compound, the GI50 [9] was > 100 µM (inactive), the GI50 [10] was > 100 µM (inactive) and the GI50 [11] was > 100 µM (inactive). For the same compound, the GI50 [12] was > 100 µM (inactive), the GI50 [13] was greater than 100 µM and the GI50 [14] was > 100 µM (inactive). The GI50 [15] was > 100 µM (inactive), the GI50 [17] was 23.4 µM (inactive) and the GI50 [18] was > 100 µM (inactive). For the same compound, the GI50 [19] was > 100 µM (inactive), the GI50 [20] was > 100 µM (inactive) and the GI50 [21] was > 100 µM (inactive). For the same compound, the GI50 [22] was > 100 µM (inactive), the GI50 [23] was > 100 µM (inactive) and the GI50 [25] was > 100 µM (inactive). For the same compound, the GI50 [26] was > 100 µM (inactive), the GI50 [27] was > 100 µM (inactive) and the GI50 [28] was > 100 µM (inactive). For the same compound, the GI50 [29] was > 100 µM (inactive), the GI50 [31] was > 100 µM (inactive) and the GI50 [32] was > 100 µM (inactive). The GI50 [33] was > 100 µM (inactive), the GI50 [35] was > 100 µM (inactive) and the GI50 [38] was > 100 µM (inactive). The GI50 [58] was > 100 µM (inactive), the GI50 [39] was > 100 µM (inactive) and the GI50 [40] was > 100 µM (inactive). The GI50 [41] was > 100 µM (inactive), the GI50 [42] was > 100 µM (inactive) and the GI50 [59] was > 100 µM (inactive). For the same compound, the GI50 [43] was > 100 µM (inactive), the GI50 [44] was > 100 µM (inactive) and the GI50 [46] was > 100 µM (inactive). For the same compound, the GI50 [47] was > 100 µM (inactive), the GI50 [50] was > 100 µM (inactive) and the GI50 [51] was > 100 µM (inactive). The GI50 [54] was > 100 µM (inactive) and the GI50 [55] was > 100 µM (inactive).
In the case of `COC(=O)C(=O)C(C(=O)C(=O)Nc1ccccc1[N+](=O)[O-])c1nc2ccc([N+](=O)[O-])cc2nc1O` (stereo unspecified), the GI50 [1] is reported as > 100 µM (inactive), the GI50 [57] is reported as > 100 µM (inactive) and the GI50 [2] is reported as > 100 µM (inactive). The GI50 [3] was > 100 µM (inactive), the GI50 [4] was > 100 µM (inactive) and the GI50 [5] was > 100 µM (inactive). The GI50 [6] was > 100 µM (inactive), the GI50 [8] was > 100 µM (inactive) and the GI50 [9] was > 100 µM (inactive). The GI50 [10] was > 100 µM (inactive), the GI50 [12] was > 100 µM (inactive) and the GI50 [13] was greater than 100 µM. The GI50 [14] was > 100 µM (inactive), the GI50 [15] was > 100 µM (inactive) and the GI50 [17] was > 100 µM (inactive). For the same compound, the GI50 [18] was > 100 µM (inactive), the GI50 [19] was > 100 µM (inactive) and the GI50 [20] was > 100 µM (inactive). For the same compound, the GI50 [21] was > 100 µM (inactive), the GI50 [22] was > 100 µM (inactive) and the GI50 [23] was > 100 µM (inactive). The GI50 [24] was > 100 µM (inactive), the GI50 [25] was > 100 µM (inactive) and the GI50 [26] was > 100 µM (inactive). For the same compound, the GI50 [27] was > 100 µM (inactive), the GI50 [28] was > 100 µM (inactive) and the GI50 [29] was > 100 µM (inactive). The GI50 [30] was > 100 µM (inactive), the GI50 [31] was > 100 µM (inactive) and the GI50 [32] was > 100 µM (inactive). For the same compound, the GI50 [34] was > 100 µM (inactive), the GI50 [35] was > 100 µM (inactive) and the GI50 [36] was > 100 µM (inactive). For the same compound, the GI50 [37] was > 100 µM (inactive), the GI50 [38] was > 100 µM (inactive) and the GI50 [58] was > 100 µM (inactive). The GI50 [39] was > 100 µM (inactive), the GI50 [40] was > 100 µM (inactive) and the GI50 [42] was > 100 µM (inactive). For the same compound, the GI50 [59] was > 100 µM (inactive), the GI50 [43] was 46.2 µM (inactive) and the GI50 [44] was > 100 µM (inactive). The GI50 [45] was > 100 µM (inactive), the GI50 [46] was > 100 µM (inactive) and the GI50 [47] was > 100 µM (inactive). The GI50 [48] was > 100 µM (inactive), the GI50 [49] was > 100 µM (inactive) and the GI50 [50] was > 100 µM (inactive). For the same compound, the GI50 [51] was > 10 µM (inactive), the GI50 [52] was > 100 µM (inactive) and the GI50 [53] was > 100 µM (inactive). For the same compound, the GI50 [54] was > 100 µM (inactive) and the GI50 [55] was > 100 µM (inactive).
